Assay results: ChEMBL document CHEMBL1141148, “Antidiabetic activity of passive nonsteroidal glucocorticoid receptor modulators” (J Med Chem, 2005)
Where “and” joins values, the source holds several entries; their conditions need not be identical. Equal entries are not always repeated. Calls of active or inactive are those of the source. The calls are words filed in the database; no cut-off is given here.

What was measured:
[1] = tested on: Rattus norvegicus; assay: Reduction of progesterone levels in pregnant rats after q.d. oral dosing at 3 mpk; format: functional
[2] = Glucose levels in ob/ob mice after 14 days of oral dose at 100 mpk b.i.d.; format: ADME; conditions: mouse, in vivo, 100 mg/kg, 336 h
[3] = organism: Mus musculus; assay: Initial weight of the ob/ob mice before oral treatment at 100 mpk b.i.d. for 14 days; format: functional
[4] = organism: Mus musculus; assay: Initial weight of the ob/ob mice before oral treatment at 100 mpk b.i.d. for 13 days; format: functional
[5] = organism: Mus musculus; assay: Final weight of the ob/ob mice after 13 days of oral treatment at 100 mpk b.i.d.; format: functional
[6] = Liver levels in ob/ob mice after 14 days of oral dose at 100 mpk b.i.d.; format: ADME, tissue-based; conditions: mouse, in vivo, 100 mg/kg, 336 h
[7] = Half life period of the compound in rat hepatocytes was determined; format: ADME, cell-based, Liver, Hepatocyte
[8] = Cholesterol levels in ob/ob mice after 14 days of oral dose at 100 mpk b.i.d.; format: ADME; conditions: mouse, in vivo, 100 mg/kg, 336 h
[9] = Glucose levels in ob/ob mice after 13 days of oral dose at 100 mpk b.i.d.; format: ADME; conditions: mouse, in vivo, 100 mg/kg, 312 h
[10] = Insulin levels in ob/ob mice after 14 days of oral dose at 100 mpk b.i.d.; format: ADME; conditions: mouse, in vivo, 100 mg/kg, 336 h
[11] = Free fatty acid (FFA) levels in ob/ob mice after 14 days of oral dose at 100 mpk b.i.d.; format: ADME; conditions: mouse, in vivo, 100 mg/kg, 336 h
[12] = Insulin levels in ob/ob mice after 13 days of oral dose at 100 mpk b.i.d.; format: ADME; conditions: mouse, in vivo, 100 mg/kg, 312 h
[13] = Half life period of the compound in rat liver microsomes was determined; format: ADME, Microsome
[14] = Free fatty acid (FFA) levels in ob/ob mice after 13 days of oral dose at 100 mpk b.i.d.; format: ADME; conditions: mouse, in vivo, 100 mg/kg, 312 h
[15] = Alanine aminotransferase (ALT) levels in ob/ob mice after 13 days of oral dose at 100 mpk b.i.d.; format: ADME; conditions: mouse, in vivo, 100 mg/kg, 312 h
[16] = tested on: Rattus norvegicus; assay: Reduction of uterine weight in pregnant rats after q.d. oral dosing at 3 mpk; format: functional
[17] = Glycogen levels in ob/ob mice after 14 days of oral dose at 100 mpk b.i.d.; format: ADME; conditions: mouse, in vivo, 100 mg/kg, 336 h
[18] = Aspartate aminotransferase (AST) levels in ob/ob mice after 13 days of oral dose at 100 mpk b.i.d.; format: ADME; conditions: mouse, in vivo, 100 mg/kg, 312 h
[19] = target: T1, Glucocorticoid receptor (Homo sapiens, UniProt P04150)
T1 sequence (P04150 whole entry): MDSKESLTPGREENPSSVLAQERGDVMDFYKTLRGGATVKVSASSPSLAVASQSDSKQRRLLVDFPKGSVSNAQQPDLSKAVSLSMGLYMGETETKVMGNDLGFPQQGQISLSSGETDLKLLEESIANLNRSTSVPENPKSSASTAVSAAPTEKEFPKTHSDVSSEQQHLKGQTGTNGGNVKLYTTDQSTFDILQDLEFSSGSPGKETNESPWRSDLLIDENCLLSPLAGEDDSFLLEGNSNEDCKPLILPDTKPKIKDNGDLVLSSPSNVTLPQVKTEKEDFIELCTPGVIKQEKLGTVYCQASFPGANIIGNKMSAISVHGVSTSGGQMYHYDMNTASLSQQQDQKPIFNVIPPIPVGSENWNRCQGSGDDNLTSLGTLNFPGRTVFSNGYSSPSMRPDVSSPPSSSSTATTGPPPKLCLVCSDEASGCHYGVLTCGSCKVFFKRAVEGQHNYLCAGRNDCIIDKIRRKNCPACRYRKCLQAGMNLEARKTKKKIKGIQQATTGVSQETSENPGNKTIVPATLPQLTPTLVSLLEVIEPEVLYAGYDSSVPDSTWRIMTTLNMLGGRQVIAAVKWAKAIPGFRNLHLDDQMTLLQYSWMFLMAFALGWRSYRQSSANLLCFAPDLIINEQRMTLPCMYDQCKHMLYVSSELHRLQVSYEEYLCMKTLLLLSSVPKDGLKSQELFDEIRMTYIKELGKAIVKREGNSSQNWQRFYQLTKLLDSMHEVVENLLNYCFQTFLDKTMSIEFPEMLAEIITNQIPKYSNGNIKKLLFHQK

[20] = target: T2, Glucocorticoid receptor (Homo sapiens) (UniProt P04150); conditions: Huh-7
T2 sequence (whole entry): T1 sequence (P04150 whole entry)

[21] = target: T3, Progesterone receptor (Homo sapiens, UniProt P06401); assay: Inhibition of human progesterone receptor
T3 sequence (P06401 whole entry): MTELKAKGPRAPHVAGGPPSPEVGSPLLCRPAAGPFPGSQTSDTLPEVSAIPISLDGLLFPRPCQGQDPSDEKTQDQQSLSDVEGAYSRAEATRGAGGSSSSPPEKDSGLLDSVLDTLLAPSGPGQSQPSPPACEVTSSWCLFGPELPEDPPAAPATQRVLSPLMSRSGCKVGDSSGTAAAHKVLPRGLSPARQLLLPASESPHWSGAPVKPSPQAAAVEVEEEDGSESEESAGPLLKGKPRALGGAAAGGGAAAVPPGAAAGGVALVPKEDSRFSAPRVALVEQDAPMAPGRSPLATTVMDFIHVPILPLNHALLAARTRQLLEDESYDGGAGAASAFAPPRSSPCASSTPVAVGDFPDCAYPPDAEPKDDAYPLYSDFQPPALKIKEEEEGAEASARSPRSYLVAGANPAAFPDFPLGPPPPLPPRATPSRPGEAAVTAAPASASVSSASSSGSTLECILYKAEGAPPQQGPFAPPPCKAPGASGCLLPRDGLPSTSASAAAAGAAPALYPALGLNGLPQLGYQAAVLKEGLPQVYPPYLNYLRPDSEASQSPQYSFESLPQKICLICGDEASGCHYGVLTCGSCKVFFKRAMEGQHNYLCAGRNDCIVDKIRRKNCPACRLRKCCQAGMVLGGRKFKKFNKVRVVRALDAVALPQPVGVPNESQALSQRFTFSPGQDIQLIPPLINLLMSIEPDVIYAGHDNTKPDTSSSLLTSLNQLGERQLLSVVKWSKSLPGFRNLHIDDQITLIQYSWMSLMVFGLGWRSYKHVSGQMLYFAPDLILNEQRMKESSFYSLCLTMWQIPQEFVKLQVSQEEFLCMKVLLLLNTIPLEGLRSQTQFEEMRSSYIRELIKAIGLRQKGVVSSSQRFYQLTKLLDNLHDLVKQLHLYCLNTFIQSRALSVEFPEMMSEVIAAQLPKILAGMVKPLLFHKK

[22] = target: T1, Glucocorticoid receptor; assay: Antagonistic activity against 5 nM Dexamethasone induced glucocorticoid receptor mediated alkaline phosphatase activity; format: functional

SMILES: CC#C[C@]1(O)CC[C@H]2[C@@H]3CCC4=CC(=O)CCC4=C3[C@@H](c3ccc(N(C)C)cc3)C[C@@]21C [MIFEPRISTONE]
- Reduction [1]: 50%
- Level [2]: 1700 µg/mL
- Weight [3]: 41.7 g
- Weight [4]: 46.1 g
- Weight [5]: 48.2 g and 51.2 g
- Level [6]: 1.8 nmol of pHB/min/mg of protein
- half-life [7]: < 6 min
- Level [8]: 3660 µg/mL
- Level [9]: 1410 µg/mL
- Level [10]: 0.014 µg/mL
- Level [11]: 0.84 mequiv/L
- Level [12]: 0.0075 µg/mL
- half-life [13]: < 19.8 min
- Level [14]: 1.5 mequiv/L
- Level [15]: 1110 units/mL
- Reduction [16]: 50%
- Level [17]: 30.5 mg/gof liver
- Level [18]: 310 units/mL

SMILES: Cc1c(NS(C)(=O)=O)cccc1N(Cc1ccc(Oc2ccc(Br)c(OCC(=O)O)c2)cc1)Cc1ccc(F)cc1F
- IC50 [19]: 1.8 nM
- Agonistic activity [20]: inactive
- IC50 [21]: 140 nM
- IC50 [22]: 330 nM
